# Patent US20250099475A1, “METHODS OF TREATING HYPERTENSION BY PERIODIC SUPPRESSION OF ALDOSTERONE SYNTHASE” (Mineralys Therapeutics, Inc., priority 2022, published 2025)
# Entries after “also recorded” stand apart in the source; their conditions may differ.
# Experiments:
# [1] = Phase 1 parts 3 and 4: sex- and age-related effects on PK; type: in vivo, human; details: single 100-mg dose; not statistically significant
# Description: Part 3 of the study evaluated the sex-related effects on the safety, tolerability, and PK of Compound A HBr. In 1 cohort of 8 healthy Caucasian women aged 20 to 35 years (inclusive), 6 participants were randomized to receive a single 100-mg dose of Compound A HBr and 2 participants were randomized to receive matching placebo. Compound A HBr or placebo was administered in the fasted state. The results were compared with those in the cohort at the same dose as in Part 1.
# Part 4 of the study evaluated the age-related effects on safety, tolerability, and PK of Compound A HBr. In 1 cohort of 8 healthy Caucasian men aged 68 to 80 years, 6 participants were randomized to receive a single 100-mg dose of Compound A HBr and 2 participants were randomized to receive matching placebo. Compound A HBr or placebo were administered in the fasted state. The results were compared with those in the cohort at the same dose as in Part 1.
# A linear model was used to analyze log-transformed AUC and Cmax with sex or age as fixed effects. Difference in least square means (LSM) and corresponding 90% CI were back-transformed to obtain the estimates of geometric mean ratios and their CI for females vs. males and ≥65 years vs. <65 years participants.
# hypertensive subjects = test: Example 4 dose-ranging study: 24-hour ambulatory blood pressure monitoring (ABPM); type: in vivo, human; details: for Change in ABPM (24 h) BPdias, Mean (sem) / Change in ABPM (24 h) BPmcan, Mean (sem) / Change in ABPM (24 h) BPsys, Mean (sem) / Change in ABPM (night) BPsys, Mean (sem) / Subjects with nighttime Dip 10-20% / Subjects with nighttime Dip <10% / Subjects with nighttime Dip >20%: Week 8, Full Analysis Set
# [2] = system: plasma cortisol concentrations (PCCs); test: ACTH-treated cynomolgus monkey model; type: in vivo
# Description: An adrenocorticotropic hormone (ACTH)-treated cynomolgus monkey model was performed to evaluate the effect of Compound A on plasma cortisol concentrations (PCCs). A dose of Compound A, as free base, that was 100-fold higher than required to reduce PACs (0.3 mg/kg by mouth) was administered, followed immediately by ACTH (50 μg/kg subcutaneously). PACs were also evaluated in the animals. PACs and PCCs were determined by radioimmunoassay and measured during the 24 hours after Compound A administration.
# cardiovascular system = test: Cardiovascular system in halothane-anesthetized dogs; type: in vivo, dog; details: intravenous infusion up to 3-mg/kg as free base; non-GLP
# Description: Effects of Compound A on the cardiovascular system were evaluated with halothane-anesthetized dogs. Doses of 0, 0.3, 1, and 3 mg/kg of Compound A as free base were infused intravenously in ascending order to the same 3 male dogs at 0.1 mL/kg/min for 10 minutes cumulatively with 30 minutes interval between the start of infusion. Heart rate, systolic, diastolic, and mean blood pressure, cardiac output, total peripheral resistance, left ventricular end-diastolic pressure, maximum upstroke velocity of the left ventricular pressure, and electrocardiogram parameters (PR interval, QRS duration, QT interval, and QTcV) were evaluated.
structure (smiles),measurement,setting,value
CC(=O)N[C@H]1CC[C@H](NC(=O)CN2CCN(c3nncc(-c4ccc(C)cc4)n3)CC2)CC1 [Compound A HBr],AUC higher in female than in male participants,[1],19%
same,AUC lower in men aged ≥65 years vs <65 years,[1],~12%
same,Cmax higher in female than in male participants,[1],25%
same,Cmax lower in men aged ≥65 years vs <65 years,[1],approximately 14%
same,overnight reduction of systolic BP (24 h ambulatory),hypertensive subjects; 100 mg QD cohort,−11.5+/−2.9 mmHg
same,"Change in ABPM (24 h) BPdias, Mean (sem)",hypertensive subjects; 12.5 mg BID,−5.4 (2.2) mmHg
same,"Change in ABPM (24 h) BPmcan, Mean (sem)",hypertensive subjects; 12.5 mg BID,−5.5 (2.7) mmHg
same,"Change in ABPM (24 h) BPsys, Mean (sem)",hypertensive subjects; 12.5 mg BID,−5.7 (3.2) mmHg
same,"Change in ABPM (night) BPsys, Mean (sem)",hypertensive subjects; 12.5 mg BID,−7.5 (4.0) mmHg
same,Subjects with nighttime Dip 10-20%,hypertensive subjects; 12.5 mg BID,31%
same,Subjects with nighttime Dip <10%,hypertensive subjects; 12.5 mg BID,69%
same,Subjects with nighttime Dip >20%,hypertensive subjects; 12.5 mg BID,0%
same,"Change in ABPM (24 h) BPdias, Mean (sem)",hypertensive subjects; 12.5 mg QD,−2.3 (1.7) mmHg
same,"Change in ABPM (24 h) BPmcan, Mean (sem)",hypertensive subjects; 12.5 mg QD,−3.7 (2.6) mmHg
same,"Change in ABPM (24 h) BPsys, Mean (sem)",hypertensive subjects; 12.5 mg QD,−5.2 (3.4) mmHg
same,"Change in ABPM (night) BPsys, Mean (sem)",hypertensive subjects; 12.5 mg QD,−5.4 (4.2) mmHg
same,Subjects with nighttime Dip 10-20%,hypertensive subjects; 12.5 mg QD,36%
same,Subjects with nighttime Dip <10%,hypertensive subjects; 12.5 mg QD,64%
same,Subjects with nighttime Dip >20%,hypertensive subjects; 12.5 mg QD,0%
same,"Change in ABPM (24 h) BPdias, Mean (sem)",hypertensive subjects; 25 mg BID,−6.1 (1.8) mmHg
same,"Change in ABPM (24 h) BPmcan, Mean (sem)",hypertensive subjects; 25 mg BID,−7.4 (2.3) mmHg
same,"Change in ABPM (24 h) BPsys, Mean (sem)",hypertensive subjects; 25 mg BID,−8.7 (2.9) mmHg
same,"Change in ABPM (night) BPsys, Mean (sem)",hypertensive subjects; 25 mg BID,−6.0 (2.8) mmHg
same,Subjects with nighttime Dip 10-20%,hypertensive subjects; 25 mg BID,17%
same,Subjects with nighttime Dip <10%,hypertensive subjects; 25 mg BID,79%
same,Subjects with nighttime Dip >20%,hypertensive subjects; 25 mg BID,4%
same,"Change in ABPM (24 h) BPdias, Mean (sem)",hypertensive subjects; 50 mg QD,−3.0 (1.6) mmHg
same,"Change in ABPM (24 h) BPmcan, Mean (sem)",hypertensive subjects; 50 mg QD,−2.4 (2.2) mmHg
same,"Change in ABPM (24 h) BPsys, Mean (sem)",hypertensive subjects; 50 mg QD,−1.8 (3.0) mmHg
same,"Change in ABPM (night) BPsys, Mean (sem)",hypertensive subjects; 50 mg QD,2.4 (4.2) mmHg
same,Subjects with nighttime Dip 10-20%,hypertensive subjects; 50 mg QD,21%
same,Subjects with nighttime Dip <10%,hypertensive subjects; 50 mg QD,78%
same,Subjects with nighttime Dip >20%,hypertensive subjects; 50 mg QD,0%
same,"Change in ABPM (24 h) BPdias, Mean (sem)",hypertensive subjects; 100 mg QD,−5.9 (1.5) mmHg
same,"Change in ABPM (24 h) BPmcan, Mean (sem)",hypertensive subjects; 100 mg QD,−7.4 (1.8) mmHg
same,"Change in ABPM (24 h) BPsys, Mean (sem)",hypertensive subjects; 100 mg QD,−8.9 (2.2) mmHg
same,"Change in ABPM (night) BPsys, Mean (sem)",hypertensive subjects; 100 mg QD,−11.5 (2.5) mmHg
same,Subjects with nighttime Dip 10-20%,hypertensive subjects; 100 mg QD,46%
same,Subjects with nighttime Dip <10%,hypertensive subjects; 100 mg QD,46%
same,Subjects with nighttime Dip >20%,hypertensive subjects; 100 mg QD,8%
CC(=O)N[C@H]1CC[C@H](NC(=O)CN2CCN(c3nncc(-c4ccc(C)cc4)n3)CC2)CC1 [Compound A],selectivity for CYP11B2 over CYP11B1 in vivo,"[2]; monkey models, dose ratio",100 fold
same,effect on PCCs,"[2]; single oral dose 100 times greater than the dose that inhibited PAC production, ACTH-loaded monkeys",did not affect PCCs; also recorded: PCCs were not affected
same,effects on the cardiovascular system,cardiovascular system,no effects
